# Assay results as given in patent US20010049393A1, “Methods for defining MYC target genes and uses thereof” (Whitehead Institute for Biomedical Research, priority 1999, published 2001).
# Experiments:
# MYC-ER [1] = assay: Cell cycle (S phase) entry after OHT treatment of MYC-ER transduced human fibroblasts; assay type: cell-based
# Method: (§1) Amphotropic viral stocks were generated by co-transfection of pBabe-puro plasmid containing MYC-ER™ or Δ-MYC-ER™ (Littlewood, T. et al., 1995. Nucl. Acids Res. 23:1686-1690) together with Psi^−helper construct (Muller, A. et al., 1991. Mol. Cell. Biol. 11:1785-1792) in 293T cells. Subconfluent WI38 cells (ATCC cat #CCL75) grown in DMEM with 10% FCS were infected with 5 mL of viral supernatant on two consecutive days. The next day, cells were plated at ˜10^4cells/cm^2 in phenol-red free DME medium with 10% FCS, and selected in the presence of puromycin for pBABE vectors. Cells were grown to confluence, for seven to eight days, without media changes. Density arrested cells were induced with 200 nM OHT (4-hydroxy-tamoxifen) or serum starved (0.1% FCS) for 48 hours and then induced. Where specified, cells were exposed to cycloheximide (10 micrograms/mL) for 30 minutes prior to addition of OHT.
# Treatment of the transduced cells with OHT, caused 20% of the cells to enter the cell cycle by 17 hours. In contrast, only 1-6% of, OHT-treated, non-MYC-ER expressing controls ever enter S phase. […]
# MYC-ER [2] = assay: Northern blot of p21 transcript after OHT stimulation of MYC-ER; assay type: cell-based, human; conditions: within two hours after OHT stimulation, MYC-ER fibroblasts
# Method: as §1
# Northern blots were performed according to standard procedures (Ausubel, F. et al., 1990. Current Protocols in Molecular Biology. Wiley Interscience, New York). For cyclin D2 and p21, complete cDNA was used as probes. For FKBP52, a PCR amplicon of bps 1215-1767 (accession number M88279) was used; for FABP5 (PA-FA-BP), bps 60-481 (M94856); for ODC1, bps 1198-1984 (X55362); for PPIF (hCyP3), bps 404-803 (M80254); and for EIF5A, bps 46-512 (U17969). […]
substance,measurement,setting,value
4-hydroxytamoxifen [OHT],cells entering the cell cycle,"MYC-ER [1]; MYC-ER transduced fibroblasts, by 17 hours after OHT",20%
same,cells entering S phase,"MYC-ER [1]; OHT-treated, non-MYC-ER expressing controls",1-6%
same,levels of p21,MYC-ER [2],decreased
